In patent publication US10407388B2, “Thiourea derivatives as activators of RORα and pharmaceutical composition containing same” (SEOUL NATIONAL UNIVERSITY R & DB FOUNDATION, priority 2011, dated 2019):

Legend:
[1] = test system: HMGCS2; experiment: Fatty acid oxidation gene HMGCS2 in HepG2 cells, real-time RT-PCR; assay type: cell-based, human; details: 100 μM, 24 hours; FIG. 8
Procedure: (§1) HepG2 cells (1×10^6 cells/well) were seeded on a 60-dish and cultured overnight in a DMEM containing 10% FBS. The HepG2 cells were maintained at 37° C. in a humidification thermostat containing 5% CO2 and 95% air. After culturing, the HepG2 cells were treated with JC1-38, JC1-40, and JC1-42 at a concentration of 100 μM for 24 hours. After treatment, effects thereof on transcriptional activity were analyzed by real-time reverse transcriptase-polymerase chain reaction (real-time RT-PCR) analysis. The PCR was performed using the following primers respectively specific to MCAD, ACO1, ACO2, HMGCS2, CPT-1, and ACS, which are involved in fatty acid oxidation: […]

[2] = test system: LXRα; experiment: Expression of LXRα protein in HepG2 cells, western blotting; assay type: cell-based, human; details: for expression of LXRα protein: 100 μM, 24 hours, FIG. 6a
Procedure: (§2) HepG2 cells (1×10^6 cells/well) were seeded on a 60-dish and cultured overnight in a DMEM containing 10% FBS. The HepG2 cells were maintained at 37° C. in a humidification thermostat containing 5% CO2 and 95% air. After culturing, the HepG2 cells were treated with each of the JC1-38, JC1-40, and JC1-42 compounds at a concentration of 100 μM, and, as a positive control, the HepG2 cells were treated with 2 mM metformin, which is an AMPK activator, for 24 hours. After treatment, the expression of proteins was analyzed by western blotting analysis. That is, after treatment, the HepG2 cells were destroyed on ice in a lysis buffer containing 50 mM NaCl, 50 mM Tris pH 7.4, 5 mM EDTA, 1% NP-40, and a protease inhibitor for 30 minutes, and then centrifuged to obtain a total cell lysate. 20 μg to 30 μg of proteins collected from the total cell lysate was subjected to 7% to 9% sodium dodecyl sulfate-polyacrylamide gel electrophoresis (SDS-PAGE), and was transferred to a polyvinylidene difluoride membrane (Millipore, Bedford, Mass., USA). The resulting product was subjected to blocking with 5% or 10% (w/v) nonfat dry milk in PBS containing 0.1% Tween-20, and was reacted with antibodies specific to RORα (Affinity BioReagents), LXRα, SREBP-1, FAS (Santa Cruz Biotechnology), phospho-ACC (Cell signaling), and α-tubulin (Calbiochem). Immunoreactive proteins were detected with Amersham ECL western blotting detection reagents using a horseradish peroxidase (HRP)-conjugated secondary antibody (Zymed Lab). Protein concentrations were quantified by bicinchoninic acid (BCA) (Pierce) analysis, and the expression of α-tubulin was monitored as a control. The results thereof are illustrated in FIG. 6a.
(§3) In addition, HepG2 cells were cultured under the same conditions, and then the HepG2 cells were treated with particular concentrations (0 μM, 1 μM, 10 μM, 50 μM, and 100 μM) of JC1-40 (or JC1-42) and 1 μM T17 for 24 hours. After treatment, the expression of proteins was analyzed by western blotting analysis, and the expression of α-tubulin was monitored as a control. The results thereof are illustrated in FIGS. 6b and 6c.

[3] = test system: ApoB100; experiment: VLDL secretion gene ApoB100 in HepG2 cells, RT-PCR; assay type: cell-based, human; details: 100 μM, 24 hours; FIG. 9b
Procedure: as §1, with “60-dish,” for “60-dish”, “RT-PCR” for “real-time reverse transcriptase-polymerase chain reaction (real-time RT-PCR)”, “CD36 (see FIG. 9a) involved in fatty acid uptake” for “MCAD, ACO1, ACO2, HMGCS2, CPT-1,”, “MTTP and ApoB100 (see FIG. 9b),” for “ACS,”, “the secretion of very low density lipoproteins:” for “fatty acid oxidation:”

[4] = test system: CD36; experiment: Fatty acid uptake gene CD36 in HepG2 cells, RT-PCR; assay type: cell-based, human; details: 100 μM, 24 hours; FIG. 9a
Procedure: as §1, with “60-dish,” for “60-dish”, “RT-PCR” for “real-time reverse transcriptase-polymerase chain reaction (real-time RT-PCR)”, “CD36 (see FIG. 9a) involved in fatty acid uptake” for “MCAD, ACO1, ACO2, HMGCS2, CPT-1,”, “MTTP and ApoB100 (see FIG. 9b),” for “ACS,”, “the secretion of very low density lipoproteins:” for “fatty acid oxidation:”

[5] = test system: SREBP-1; experiment: Expression of SREBP-1 protein in HepG2 cells, western blotting; assay type: cell-based, human; details: for expression of SREBP-1 protein: 100 μM, 24 hours, FIG. 6a; for expression of SREBP-1, which had been increased by T17: 0, 1, 10, 50, 100 μM with 1 μM T17, 24 hours, FIGS. 6b and 6c; for expression of proteins (LXRα, SREBP-1, FAS of FIGS. 6b and 6c): 50 μM to 100 μM with 1 μM T17, 24 hours
Procedure: as §2, §3

[6] = biological target: T1, RORα (Homo sapiens, UniProt P35398); experiment: Transcriptional activity of RORα, RORE-tk-Luc reporter in CV-1 cells (Experimental Example 1); assay type: cell-based; details: for Fold Activation: JC1 compounds 100 μM, 24 hours, luciferase activity standardized by β-gal, versus control treated only with solvent
T1 construct: expressed in transfected cells; host or cells: CV-1 cells (ATCC CCL-70)
T1 sequence (P35398 1-523): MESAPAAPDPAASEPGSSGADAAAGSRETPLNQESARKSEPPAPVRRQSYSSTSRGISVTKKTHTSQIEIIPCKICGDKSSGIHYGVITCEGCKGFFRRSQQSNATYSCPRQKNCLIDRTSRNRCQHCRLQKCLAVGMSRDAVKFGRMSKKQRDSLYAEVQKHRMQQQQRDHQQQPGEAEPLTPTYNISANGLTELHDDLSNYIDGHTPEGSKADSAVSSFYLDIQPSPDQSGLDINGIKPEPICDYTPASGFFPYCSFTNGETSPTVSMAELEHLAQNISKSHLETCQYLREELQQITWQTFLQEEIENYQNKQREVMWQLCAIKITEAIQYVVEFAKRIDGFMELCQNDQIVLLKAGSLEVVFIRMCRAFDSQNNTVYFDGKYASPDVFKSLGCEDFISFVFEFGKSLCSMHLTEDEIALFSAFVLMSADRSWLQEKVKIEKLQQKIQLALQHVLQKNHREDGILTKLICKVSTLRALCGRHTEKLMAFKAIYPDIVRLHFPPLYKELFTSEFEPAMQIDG
Procedure: CV-1 cells (CCL-70) were purchased from American Type Culture Collection (ATCC). The CV-1 cells (4×10^4 cells/well) were seeded on a 24-well culture plate and cultured overnight in a Dulbecco's Modified Eagle's Medium (DMEM) containing 10% fetal bovine serum (FBS). The CV-1 cells were maintained at 37° C. in a humidification thermostat containing 5% CO2 and 95% air. After culturing, the cells were transformed with RORE-tk-Luc reporter plasmid (100 ng) and ROR expression vector (5 ng) using calcium phosphate. […]

SMILES | transcriptional activity of HMGCS2 [1] | expression of LXRα protein [2] | transcriptional activity of ApoB100 [3] | transcriptional activity of CD36 [4] | expression of SREBP-1 protein [5] | Fold Activation [6] | expression of SREBP-1, which had been increased by T17 [5] | expression of proteins (LXRα, SREBP-1, FAS of FIGS. 6b and 6c) [5] | expression of LXRα, which had been increased by T17 ([2]; 0, 1, 10, 50, 100 μM with 1 μM T17, 24 hours, FIG. 6c) | activity (transcriptional activity of RORα) ([6]; 100 μM, relative to control treated only with a solvent)
CNC(=S)NCc1ccccc1-c1ccncc1 [Compound 38, 1-methyl-3-(4-pyridinyl-2-benzyl)-thiourea] | increased | decreased | increased | decreased | decreased | 1.9 | – | – | – | –
CNC(=S)NCc1ccc(OCc2ccccc2)cc1 [Compound 40, 1-(4-benzyloxy-benzyl)-3-methyl-thiourea] | increased | decreased | increased | decreased | decreased | 3.6 | decreased in a manner dependent on the concentration | strongly inhibited | – | –
CNC(=S)NCc1ccc(Oc2ccccc2)cc1 [Compound 42, 1-(4-phenoxy-benzyl)-3-methyl-thiourea] | increased | decreased | increased | decreased | decreased | 4.6 | decreased in a manner dependent on the concentration | strongly inhibited | decreased in a manner dependent on the concentration | 460%
